Molecules are shown by their SMILES. Structures can show the parent of a compound that is named as a salt. Where two headings read alike, the source gives them in different places. Square brackets hold non-standard residues; d marks the D form. Peptide text beside a SMILES is read from it. * marks the point of attachment. dPhg = N[C@@H](C(=O)O)c1ccccc1; Boc = CC(C)(C)OC(=O)*

Assay [1] relates to plasma. The assay can be described thus: Plasma coagulation assay: prothrombin time. The format is biochemical. The settings on record: thromboplastin (Dade). Here is the method: (§1) The numerical values in the table are the concentrations of the test compounds (ng/ml) required to prolong coagulation by 2-fold in the three tests. The thrombin time evaluation was carried out in plasma and separately determined in a buffer system at […].
(§2) The data presented in Table 2 were obtained using a CoaScreener instrument from Tecan, Inc. in the assay protocols listed below. Prothrombin Time: 50 µl plasma 50 µl saline 7 µl test solution 50 µl thromboplastin (Dade) Thrombin Time: 50 µl plasma 50 µl saline 7 µl test compound 50 µl bovine thrombin (2 NIH unit/ml) In the Thrombin Time determined in pH 7.4 buffer fibrinogen was used instead of plasma. APTT: 50 µl plasma 50 µl Actin (Dade) 7 µl test solution 50 µl CaCl2 (0.01M).

Assay [2] deals with Arterial Thrombosis in the Rat. In words: FeCl3-induced arterial thrombosis in the carotid artery of the rat. The format is in vivo. The settings on record: infusion from 15 min before to 60 min after FeCl3 application, NA = Not active at 4 mg/kg/h or at 7 mg/kg/h, the highest doses tested.
Protocol: The antithrombotic activity of representative compounds of the invention was determined in in vivo tests carried out in the rat. The test employed induced arterial thrombosis in the carotid artery of the rat and measured the infusion dose of test compound required to maintain blood flow for fifty minutes past the time of occlusion. The test was performed as follows.
Arterial thrombosis was induced in the rat by injury of the carotid artery. Topical application of a ferric chloride solution was used to injure the vessel. […] Animals were laid on a water blanket in which the circulated water was maintained at 37° C. The carotid artery was approached through a midline cervical incision. Careful blunt dissection was used to expose and isolate the vessel from the carotid sheath. A silk suture was pulled underneath the artery to lift the vessel to provide clearance to insert a thermocouple underneath it. […] The discs were cut to equal size using sharpened stainless steel tubing (3 mm i.d.) chucked in a drill press. A saturated disc was placed on each carotid artery above the thermocouple. The time between FeCl3 application and the time at which temperature decreased abruptly was recorded as time to occlusion (TTO) of the vessel. The average time required for both vessels to occlude was used to represent TTO for each animal.
Test compounds were dissolved in isotonic saline. A syringe pump was used to infuse drug solutions starting 15 min before FeCl3 application and continuing for 60 min after FeCl3 application. Dose-response curves were plotted to determine the relationship between the log10 of the infused doses and the TTO of the injured arteries.
The association between vessel occlusion and the abrupt temperature decrease was established by simultaneously recording the temperature and blood flow on the same recorder. A pulsed Doppler flow probe was placed around the carotid artery proximal to the thermocouple. […] Results were reported as percent change from initial baseline values (6 min before occlusion). The time at which vessel temperature decreased rapidly was arbitrarily established as zero and pre- and post-occlusion temperature and flow values were referenced from that point.
The subject of assay [3] is plasma. The assay can be described thus: Plasma coagulation assay: activated partial thromboplastin time (APTT). The following applies: Actin (Dade), CaCl2. The format is biochemical. Here is the method:
as §1, §2

Assay [4] deals with T1, bovine thrombin (Bos taurus, UniProt P00735).
T1 construct: 50 µl bovine thrombin (2 NIH unit/ml)
The assay can be described thus: Plasma coagulation assay: thrombin time. The format is biochemical. The settings on record: for Thrombin Time: concentration of test compounds required to prolong coagulation by 2-fold: plasma, bovine thrombin (2 NIH unit/ml). As to the method: as §1, §2

Assay [5] deals with T1, bovine thrombin. In words: Thrombin time in buffer (fibrinogen instead of plasma). The format is biochemical. The following applies: for Buffer (pH 7.5) Thrombin Time: concentration of test compounds required to prolong coagulation by 2-fold: buffer pH 7.5, fibrinogen instead of plasma. Here is the method: as §1, §2
A further assay addresses T2, thrombin (Bos taurus, UniProt P00735).
T2 construct: purchased
In words: Inhibition of thrombin amidase activity (chromogenic substrate N-benzoyl-D-phenylalanyl-L-valyl-L-arginyl-p-nitroanilide). The format is biochemical. Here is the method: The data in the table were obtained in an assay in which thrombin hydrolyzes the chromogenic substrate, N-benzoyl-D-phenylalanyl-L-valyl-L-arginyl-p-nitroanilide.
The assay was carried out in 50 µl buffer (0.03M Tris, 0.15M NaCl, pH 7.4) with 25 µl of thrombin solution (0.21 mg/ml of thrombostat powder in 0.06 M Tris, 0.3M NaCl, pH 7.4) and 150 µl of an aqueous solution of the chromogenic substrate at a concentration of 0.25 mg/ml. Solutions of test compound (25 µl) at various concentrations were added. […] Standard curves were constructed by plotting free thrombin concentration against hydrolysis rate. […] The amount of free inhibitor in each assay was calculated by subtracting the number of moles of bound thrombin from the number of moles of added inhibitor (test compound).
The Kass value is the hypothetical equilibrium constant for the reaction between thrombin and the test compouhnd (I). Thrombin + I ⇄ Thrombin - I [formula] Kass =([Thrombin I])/([ (Thrombin) x (I) ]) [formula]
Kass was calculated for a range of concentrations of test compounds and the mean value is reported in units of liter per mole.

As to `CC(C)(C)OC(=O)N[C@@H](C(=O)N1CCC[C@H]1C(=O)N[C@H](C=O)CCCNC(=N)N)c1ccccc1` [N-Boc-D-phenylglycyl, N-(t-Butyloxycarbonyl)-D-phenylglycyl-L-Prolyl-L-Arginine aldehyde (Boc-D-Phg-Pro-Arg-H) diacetate salt] (Boc-[dPhg]-Pro-Arg-aldehyde), in the assay on plasma [1], the “Prothrombin Time: concentration of test compounds required to prolong coagulation by 2-fold” value (shortened to “Prothrombin Time: concentration … by 2-fold”) is 667 ng/mL. In assay [2], the “ED50 (infusion dose required to maintain blood flow for 50 min)” value (“ED50” for short) is 2.9 mg/kg/h. The “APTT: concentration of test compounds required to prolong coagulation by 2-fold” value (shortened to “APTT: concentration … by 2-fold”) in the assay on plasma [3] is 1169 ng/mL. Besides, the EC (2-fold clotting time) on bovine thrombin [4] (read-out: Thrombin Time: concentration of test compounds required to prolong coagulation by 2-fold) came to 0.11 µg/mL; at bovine thrombin [5] (pH 7.5, read-out: Buffer (pH 7.5) Thrombin Time: concentration of test compounds required to prolong coagulation by 2-fold) it was 0.118 µg/mL.
On to `CC(C)(C)OC(=O)N[C@@H](C(=O)N1CCC[C@H]1C(=O)N[C@H](C=O)CCCNC(=N)N)c1cccc2ccccc12` [N-Boc-D-1-naphthylglycyl, N-Boc-D-1-naphthylglycyl-Pro-Arg-H diacetate], for which the Kd at thrombin was 19.2 nM. In addition, the “Prothrombin Time: concentration … by 2-fold” value with plasma [1] came out at 1225 ng/mL. In assay [2], the “ED50” value is given as 6.4 mg/kg/h. For the same molecule, the “APTT: concentration … by 2-fold” value in the assay on plasma [3] stood at 3100 ng/mL. For the same molecule, the “Thrombin Time: concentration of test compounds required to prolong coagulation by 2-fold” value at bovine thrombin [4] was 230 ng/mL. For the same molecule, the “Buffer (pH 7.5) Thrombin Time: concentration of test compounds required to prolong coagulation by 2-fold” value at bovine thrombin [5] was 105 ng/ml.
On to `CC(C)(C)OC(=O)NC(C(=O)N1CCC[C@H]1C(=O)N[C@H](C=O)CCCNC(=N)N)c1cccc2ccccc12` (mixture of isomers) [N-Boc-DL-1-naphthylglycyl], for which the Kd at thrombin (apparent equilibrium (association) constant, mean over a range of concentrations, pH 7.4, acetate salts unless indicated otherwise, read-out: Thrombin Amidase Kass (converted)) was 55.2 nM. Moreover, the “Prothrombin Time: concentration … by 2-fold” value in the assay with plasma [1] amounted to 1136 ng/mL. The “ED50” value in assay [2] came to 5.5 mg/kg/h. Moreover, in the assay with plasma [3], the “APTT: concentration … by 2-fold” value was 2272 ng/mL. Moreover, the “Thrombin Time: concentration of test compounds required to prolong coagulation by 2-fold” value on bovine thrombin [4] turned out to be 320 ng/mL. The “Buffer (pH 7.5) Thrombin Time: concentration of test compounds required to prolong coagulation by 2-fold” value on bovine thrombin [5] is listed as 112 ng/ml.

The values are drawn from patent EP0837071A1, “Tripeptide antithrombotic agents” (ELI LILLY AND COMPANY, priority 1990, dated 1992).
